Test results as given in a melting point compilation (Tetko et al.).

Structure (SMILES)	melting point
Cc1cc(C)c(C[S+]([O-])Cc2c(C)cc(C)cc2C)c(C)c1	210 °C
ClCc1cccc2ccccc12	32 °C
CNCc1ccc(-c2ccsc2)cc1	68 to 69 °C
Nc1ccccc1/C=C/c1cc(/C=C/c2ccccc2)c([N+](=O)[O-])cc1[N+](=O)[O-]	193 °C
O=P(O)(O)CCCCP(=O)(O)O	219 to 221 °C
Nc1c(C(=O)O)sc2ncccc12	202 to 204 °C
O=C(C=Cc1ccccc1)NCCO	101 °C
Nc1ccc(Cl)cc1O	152 to 157 °C
Fc1cc(I)ccc1Br	36 to 41 °C
NC(=O)c1cc(Cl)ccc1N	171 °C
O=C(Cc1ccc(-c2ccccc2)cc1)Nc1ccccn1	122 °C
CS(=O)(=O)Nc1cccc(C=O)c1	146 to 147 °C
CC(=O)OC[C@@H](OC(C)=O)[C@H](OC(C)=O)[C@H](OC(C)=O)[C@@H](OC(C)=O)C(=O)CBr	123 to 125 °C
OCc1ccc(N2CCOCC2)cc1	96 to 98 °C
COc1ccc(-c2csc(/C(C#N)=C/c3ccc(Cl)cc3Cl)n2)cc1	142 °C
N#Cc1ccccc1C(F)(F)F	18 °C
Cc1csc(-c2cn(C(C)C)c(=O)n(CC(=O)NN)c2=O)n1	260 to 263 °C
C[C@H](CCC(=O)O)[C@H]1CC[C@H]2[C@@H]3CC[C@H]4CC(=O)CC[C@]4(C)[C@H]3CC[C@]12C	189 °C
COC(=O)CCC(C)C1CCC2=C3CCC4CC(OC(C)=O)CCC4(C)C3CC(OC(C)=O)C21C (configuration not stated)	234 °C
Cc1cccc(N/N=C2/C(=O)N(c3ccccc3)N=C2C(F)(F)F)c1C	136 °C
CNc1cc(Cl)ccc1[N+](=O)[O-]	104 to 107 °C
COc1ccc(-c2noc(C)c2C(=O)O)cc1	190 to 195 °C
CN(C)c1ccc(C(O)(c2ccccc2)c2ccc(N(C)C)cc2)cc1	113 °C
O=C1C(c2ccccc2)=C(c2ccccc2)c2ccccc21	151 to 155 °C
CC(C)(C)N(NC(=O)c1ccccc1)C(=O)c1c(Cl)cccc1Cl	198 °C
ClCc1csc(-c2ccccc2)n1	49 to 50 °C

Structure (SMILES)	melting point
O=[N+]([O-])c1cccc2c(Br)n[nH]c12	175 to 185 °C
O=[N+]([O-])c1cccc([N+](=O)[O-])c1CO	85 to 95 °C
O=C(c1ccc([N+](=O)[O-])cc1)c1noc(-c2ccc([N+](=O)[O-])cc2)c1S(=O)(=O)c1ccccc1	133 °C
Cn1c(=O)c(C2=NNC(=O)C2=Cc2ccc(Cl)cc2Cl)c(O)c2ccccc21	280 °C
O=C(CCc1ccccc1)/C(=N\O)c1ccccc1	129 to 130 °C
Cc1ccc(NC=CC(=O)c2ccc3c(c2)CCCC3)cc1	139 °C
CC(=O)NS(=O)(=O)c1ccc(NC(=O)c2ccccc2C(=O)O)cc1	196 °C
O=C(O)c1c(Cl)c(Cl)c(Cl)c(Cl)c1Cl	209 °C
Cc1nc(-c2ccc(CBr)cc2)cs1	73 to 76 °C
CC12CCCC1C1CCC3CC(Cc4ccccc4)CCC3(C)C1CC2 (configuration not stated)	148 °C
c1ccc2c(c1)[nH]c1cnccc12	199 to 201 °C
CN(C)C(=N)N(C)C	-30 °C
Cc1cc(C)n2nc(N)c(/N=N/c3cccc([N+](=O)[O-])c3)c2n1	263 °C
Cn1c(=O)c2c(ncn2CN2CCOCC2)n(C)c1=O	177 °C
COC(CCNC1=CC(=O)c2ccccc2C1=O)OC	114 °C
CC(C)CCCC(C)C1CCC2C3CC=C4CC(OC(=O)Cc5ccc(N(CCCl)CCCl)cc5)CCC4(C)C3CCC12C (configuration not stated)	90 °C
CCCCCCC(C)CCC (configuration not stated)	-77.5 °C
C#CCCCCCCCC#C	-17 °C
CCN(CC)CN1C(=O)C(=Cc2ccco2)SC1=S	145 °C
COc1cc(O)c(C=O)c(OC)c1	70 °C
N#CO	-86 °C
CCCCCCCCCCOc1ccc(C=O)cc1OCCCCCCCCCC	61 to 66 °C
CC(CO)C1=C(O)C(=O)C2=C(CC(O)C3C(C)(C)CCCC23C)C1=O (configuration not stated)	186 °C
CC(C)(C)NC(=O)C1CCC2C3CCC4NC(=O)C=CC4(C)C3CCC12C (configuration not stated)	253 °C
Cc1ccc(S(=O)(=O)c2ncsc2SCC(N)=O)cc1	204 to 206 °C
CC[C@H](CO)N1Cc2ccccc2C1	56 to 61 °C

Structure (SMILES)	melting point
OCCN1CCN(CCCN2c3ccccc3Sc3ccc(Cl)cc32)CC1	94 °C
Cc1cc(C)nc(NNC=Cc2ccc([N+](=O)[O-])cc2)n1	183 to 184 °C
Cc1c(C)c(C)c(C(=O)c2ccccc2)c(C)c1C	138 °C
NC(=S)Nc1ccc2c(c1)OCO2	198 to 200 °C
C(=Cc1ccccc1)CN1CCNCC1	39 to 44 °C
O=C1CCc2ccc(OCCCCN3CCN(c4cccc(Cl)c4Cl)CC3)cc2N1	139 °C
CC1NC(C)SC(C)S1 (configuration not stated)	46 °C
CC(=O)Oc1ccccc1	-30 °C
c1ccc2c(c1)-c1nc3ccccc3nc1-2	203 °C
Cc1sc(-c2cccnc2)nc1-c1ccccc1	80 °C
Nc1ccc(Nc2ccc([N+](=O)[O-])cc2[N+](=O)[O-])cc1	188 °C
BrC(=C(\Br)c1ccccc1)/C(Br)=C(\Br)c1ccccc1	236 °C
CCCCCCCCCCOc1ccc(C(=O)O)cc1	114 °C
COC(=O)C(C(=O)OC)=C1SC2=C(C(=O)c3ccccc3C2=O)N1c1ccccc1	239 °C
C=CCSc1nc(C)n[nH]1	88 to 90 °C
CC(Cl)C(N)=O (configuration not stated)	76 to 81 °C
N#Cc1ccnc(N2CCCC2)c1	79 to 80 °C
CN1C2CCC1CC(O)C2 (configuration not stated)	109 °C
Clc1ccc(I)cn1	97 °C
O=[N+]([O-])c1ccc(-c2nc(-c3ccccc3)c(-c3ccccc3)[nH]2)cc1	243 to 246 °C
OCc1ccccc1-c1ccco1	72 °C
CC(C)(C)c1nc(N)nc(O)n1	275 °C
OCc1ccccc1N1CCOCC1	54 to 57 °C
Cc1cc(C)ncn1	25 °C
ON=Cc1ccc2c(Br)cccc2c1	178 °C
O=C1NC(=O)C(Cc2cccc(CC3C(=O)NC(=O)NC3=O)c2)C(=O)N1	272 °C

Structure (SMILES)	melting point
NCc1ccc2sccc2c1	41 to 43 °C
Clc1cc(Br)ccc1I	35 to 37 °C
CC(C)(C)C1=NN(c2ccccc2)C(=O)C1	110 °C
Cc1cc(Br)cc(N)c1N	63 to 64 °C
CCOC(=O)C(=O)C(C#N)C(=O)OCC (configuration not stated)	88 to 90 °C
O=C1c2ccccc2C(=O)N1CO	144 °C
CCCCCCCCCCCC(=O)CCCC	37 °C
O=C(O)c1ccccc1C(=O)O	200 to 205 °C
COc1ccc(C(=O)Cc2c(CCN(C)C)cc3c(c2OC)OCO3)c(C(=O)O)c1OC	138 °C
O=C(Cl)OCC1c2ccccc2-c2ccccc21	63 °C
CC1CCC(C)C(C)C1C (configuration not stated)	-75 °C
O=C1C(=C2C(=Cc3coc4ccccc4c3=O)C(=O)c3ccccc32)C(=O)c2ccccc21	250 to 251 °C
COc1cc(N)c(Cl)cc1C(=O)NC1CCN(CCCOc2ccc(F)cc2)CC1OC (configuration not stated)	110 °C
CC(C)SSC(C)C	-69 °C
O=c1ccoc2ccc(Br)cc12	141 °C
O=C1OC(c2ccc(OP(=O)(O)O)cc2)(c2ccc(OP(=O)(O)O)cc2)c2ccccc21	198 °C
Cc1ccc(C)c(NN=C2C(=O)NN=C2C(F)(F)F)c1	189 °C
CC(C)n1c(O)nnc1S	167 to 170 °C
NCCOP(=O)(O)O	242 °C
CCCCC(C)CC (configuration not stated)	-100 °C
CC(=O)c1c(C)cn(C)c1C	81 to 82 °C
Cc1nc(/C(C#N)=C\c2ccco2)sc1/N=N/c1ccccc1[N+](=O)[O-]	212 to 213 °C
Cc1cc(=O)[nH]c(=S)[nH]1	317 to 318 °C
COc1ccc(/C=C2\SC(=S)N(CN3CCOCC3)C2=O)cc1	133 °C
CC(C)NCC(O)COc1cccc2c1C=CC2 (configuration not stated)	88.5 °C
CCCCCCCC(=O)OC	-40 °C

Structure (SMILES)	melting point
C=CCO	-129 °C
CCSc1nc(N)nc(C(C)C)n1	115 to 117 °C
O=C(Nc1ccc(Br)cc1)c1cc(Br)cc(Br)c1O	227 °C
O=C(O)CC(=O)CC(=O)O	133 °C
COc1cccc(C=C[N+](=O)[O-])c1	91 to 93 °C
O=C(O)c1cccc(N2CCOCC2)c1	161 to 163 °C
COCCCl	-55 °C
N#CC(c1ccc(Cl)cc1)N1CCOCC1 (configuration not stated)	76 to 77 °C
OC(CCl)c1ccc(Cl)cc1Cl (configuration not stated)	48 to 52 °C
Cc1cc(Cl)ccc1[N+](=O)[O-]	23 to 25 °C
CC(=O)OC(OC(C)=O)c1ccc2c(c1[N+](=O)[O-])C(=O)c1c(Cl)c(Cl)c(Cl)c(Cl)c1C2=O	250 °C
O=CC(C=O)c1ccc(C(=O)O)cc1[N+](=O)[O-]	199 to 205 °C
O=C(NNC(=S)NCc1ccccc1)C(=O)c1c[nH]c2ccccc12	243 °C
O=Cc1coc2ccc(Cl)cc2c1=O	162 to 168 °C
Nc1ccc(CO)cn1	120 °C
CC(C)(C)c1ccc(S(=O)(=O)Cl)cc1	82 °C
O=C(O)C=CC(=O)Nc1cccc2ccccc12	150 to 153 °C
O=C1C(Br)=C(c2ccccc2)c2ccccc21	111 °C
CC1(c2ccccc2)CC(C(=NOCC2CO2)c2cc3ccccc3o2)C1 (configuration not stated)	159 to 160 °C
O=C(NCCc1c[nH]cn1)C1=NC=NC1	176 °C
Cc1nonc1C	-7 °C
O=C1C=CC(=O)N1c1ccc(N2C(=O)C=CC2=O)cc1	300 °C
O=C(O)c1cn(C2CCCCC2)c2ccccc2c1=O	237 to 238 °C
